One data set concerns the target T1, 11β-HSD2 (Homo sapiens, UniProt P80365).
T1 construct: Human liver microsomes were used as a source of 11β-HSD2 enzyme; tissue XenoTech Lot No. 1710160; host or cells: human kidney microsomes, mixed gender (the method paragraph says human liver microsomes)
T1 sequence (P80365 1-405): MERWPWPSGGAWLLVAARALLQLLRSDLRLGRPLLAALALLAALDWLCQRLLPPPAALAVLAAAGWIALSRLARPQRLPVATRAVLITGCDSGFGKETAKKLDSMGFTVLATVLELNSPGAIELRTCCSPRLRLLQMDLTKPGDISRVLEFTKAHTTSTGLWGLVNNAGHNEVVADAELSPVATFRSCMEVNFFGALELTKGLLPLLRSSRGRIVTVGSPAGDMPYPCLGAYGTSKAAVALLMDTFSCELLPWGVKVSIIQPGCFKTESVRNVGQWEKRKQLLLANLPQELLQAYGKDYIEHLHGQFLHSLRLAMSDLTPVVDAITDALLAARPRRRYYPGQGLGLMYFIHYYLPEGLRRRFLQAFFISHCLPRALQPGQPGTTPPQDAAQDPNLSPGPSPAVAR
In words: Inhibition of 11β-HSD2 (cortisol to cortisone, human microsomes, cortisol ELISA). It counts as biochemical. To be noted: 10 µM compound, 2.5 h at 37 °C. As to the method:
[…] […] The level of unreacted cortisol was measured by commercially available ELISA kit.
(§1) As a control, analogous tests without the addition of inhibitors were used. Half the inhibitory concentration (causing 50% reduction of cortisol or cortisone) was read from the chart.

A further data set deals with T2, 11β-HSD1 (Homo sapiens, UniProt P28845).
T2 construct: Human liver microsomes were used as a source of 11β-HSD1 enzyme; tissue XenoTech Lot No.1410013; host or cells: pooled human liver microsomes, mixed gender
In words: Inhibition of 11β-HSD1 (cortisone to cortisol, human liver microsomes, cortisol ELISA). The format is biochemical. To be noted: for inhibition at 10 µM: 10 µM compound, 2.5 h at 37 °C; for IC50: concentrations 0.625-10.0 µM, read from the chart. The protocol: To stop the reaction, 10 µL of a 100 µM solution of 18β-glycyrrhetinic acid in PBS was added. The level of cortisol obtained in the reaction was measured by commercially available ELISA kit.
as §1

T2 sequence (P28845 whole entry): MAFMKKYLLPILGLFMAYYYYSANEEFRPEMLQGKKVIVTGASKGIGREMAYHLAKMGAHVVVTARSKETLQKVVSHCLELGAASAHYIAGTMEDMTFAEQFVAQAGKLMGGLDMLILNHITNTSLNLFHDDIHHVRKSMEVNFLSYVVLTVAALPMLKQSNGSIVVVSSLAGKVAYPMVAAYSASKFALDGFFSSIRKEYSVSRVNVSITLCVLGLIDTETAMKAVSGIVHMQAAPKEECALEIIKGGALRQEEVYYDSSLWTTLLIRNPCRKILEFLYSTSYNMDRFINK

Take `O=C1CSC(NC23CC4CC(CC(C4)C2)C3)=N1` [3a, 2-(adamantan-1-ylamino)thiazol-4(5H)-one]: the melting point lay in the range of 271 to 273 °C. Moreover, testing at 10 µM on 11β-HSD2 gave an inhibition of 29.8 ± 4.21%. For the same compound, at 11β-HSD1, the inhibition at 10 µM stood at 22.3 ± 5.31% and the 50% inhibitory concentration (IC50) was > 10 µM.
Regarding `O=C1N=C(NC23CC4CC(CC(C4)C2)C3)SC12CCC2` [3j, 6-(adamantan-1-ylamino)-5-thia-7-azaspiro[3.4]oct-6-en-8-one], the melting point was in the range of 265 to 266 °C. At 11β-HSD2, this compound came in with an inhibition at 10 µM of 41.4 ± 4.22%. On 11β-HSD1, the inhibition at 10 µM came out at 74.1 ± 2.85% and the IC50 is 3.32 ± 0.24 µM.
Taken in the same sequence, the figures for `CC1(C)SC(NC23CC4CC(CC(C4)C2)C3)=NC1=O` [3f, 2-(adamantan-1-ylamino)-5,5-dimethylthiazol-4(5H)-one] were 208 to 210 °C, 24.5 ± 3.24%, 66 ± 1.12% and 6.11 ± 0.62 µM.
Taken in the same sequence, the figures for `CC1SC(NC23CC4CC(CC(C4)C2)C3)=NC1=O` (stereo not drawn) [3b, 2-(adamantan-1-ylamino)-5-methylthiazol-4(5H)-one] were 265 to 267 °C, 44.7 ± 4.19%, 62.1 ± 3.59% and 3.52 ± 0.19 µM.
On 11β-HSD2, `O=C1N=C(NC23CC4CC(CC(C4)C2)C3)SC1c1ccc(Br)cc1` (stereo not drawn) [3h, 2-(adamantan-1-ylamino)-5-(4-bromophenyl)thiazol-4(5H)-one] gave an inhibition at 10 µM of 41.8 ± 6.12%. On 11β-HSD1, 10 µM produced 15.3 ± 0.49% inhibition and the concentration for half-maximal inhibition (IC50) was > 10 µM.
Compound `CC1(C)[C@@H](OC(=O)CCC(=O)O)CC[C@]2(C)[C@H]3C(=O)C=C4[C@@H]5C[C@@](C)(C(=O)O)CC[C@]5(C)CC[C@@]4(C)[C@]3(C)CC[C@@H]12` [carbenoxolone, reference compound] yielded an inhibition at 10 µM against 11β-HSD1 of 84.8 ± 6.23%.
In turn, `O=C1N=C(NC23CC4CC(CC(C4)C2)C3)SC1c1ccccc1` (stereo not drawn) [3g, 2-(adamantan-1-ylamino)-5-phenylthiazol-4(5H)-one] had an inhibition at 10 µM against 11β-HSD2 of 18.3 ± 3.18%. In addition, on 11β-HSD1, the inhibition at 10 µM is 46.3 ± 5.53% and the IC50 was > 10 µM.
`CCC1SC(NC23CC4CC(CC(C4)C2)C3)=NC1=O` (stereo not drawn) [3c, 2-(adamantan-1-ylamino)-5-ethylthiazol-4(5H)-one]: the melting point was in the range of 257 to 259 °C. The same compound registered an inhibition at 10 µM at 11β-HSD2 of 14.4 ± 1.16%. Further, at 11β-HSD1, 10 µM produced 69.2 ± 5.12% inhibition and the IC50 amounted to 5.44 ± 0.32 µM.
Taken in the same sequence, the figures for `O=C1N=C(NC23CC4CC(CC(C4)C2)C3)SC12CCCCC2` [3i, 2-(adamantan-1-ylamino)-1-thia-3-azaspiro [4.5]dec-2-en-4-one] were 268 to 270 °C, > 44%, 82.8 ± 2.05% and 0.31 ± 0.05 µM.
Taken in the same sequence, the figures for `CCCC1SC(NC23CC4CC(CC(C4)C2)C3)=NC1=O` (stereo not drawn) [3d, 2-(adamantan-1-ylamino)-5-propylthiazol-4(5H)-one] were 247 to 249 °C, 28.9 ± 4.11%, 72.4 ± 2.63% and 3.23 ± 0.26 µM.
Taken in the same sequence, the figures for `CC(C)C1SC(NC23CC4CC(CC(C4)C2)C3)=NC1=O` (stereo not drawn) [3e, 2-(adamantan-1-ylamino)-5-isopropylthiazol-4(5H)-one] were 239 to 241 °C, 16.4 ± 2.06%, 76.4 ± 2.55% and 1.19 ± 0.21 µM.

Values taken from publication PMC8395285, “Novel 2-(Adamantan-1-ylamino)Thiazol-4(5H)-One Derivatives and Their Inhibitory Activity towards 11β-HSD1—Synthesis, Molecular Docking and In Vitro Studies” (International Journal of Molecular Sciences, 2021).
